Calls of active or inactive are those of the source. No cut-off for these calls is given here.
Key:
[1] = molecular target: P2X purinoceptor 1 (Rattus norvegicus, UniProt P47824); experiment: Antagonist activity at wild type His6 tagged rat P2X1 receptor expressed in Xenopus laevis oocytes assessed as inhibition of alphabeta-me ATP-induced calcium flux at -60 mV holding potential by two electrode voltage clamp method; format: cell-based
[2] = molecular target: T1, P2X purinoceptor 1 (Rattus norvegicus, UniProt P47824); experiment: Antagonist activity at P2X1 receptor in rat vas deferens assessed as inhibition of alphabeta me-ATP-induced response
T1 sequence (P47824 whole entry): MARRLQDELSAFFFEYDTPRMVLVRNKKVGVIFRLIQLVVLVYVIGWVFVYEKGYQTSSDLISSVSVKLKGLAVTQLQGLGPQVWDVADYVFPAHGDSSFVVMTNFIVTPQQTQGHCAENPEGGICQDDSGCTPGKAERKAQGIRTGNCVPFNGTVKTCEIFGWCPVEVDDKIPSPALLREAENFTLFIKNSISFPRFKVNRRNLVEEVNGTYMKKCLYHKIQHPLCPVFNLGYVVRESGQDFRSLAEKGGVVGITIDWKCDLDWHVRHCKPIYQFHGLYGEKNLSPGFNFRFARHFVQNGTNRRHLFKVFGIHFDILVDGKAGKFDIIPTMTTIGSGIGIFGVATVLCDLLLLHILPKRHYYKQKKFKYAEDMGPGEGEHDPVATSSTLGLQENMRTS

[3] = molecular target: T2, P2X purinoceptor 3 (Rattus norvegicus, UniProt P49654); experiment: Antagonist activity at P2X3 receptor in rat DRG neurons at -70 mV holding potential by whole cell patch clamp method
T2 sequence (P49654 whole entry): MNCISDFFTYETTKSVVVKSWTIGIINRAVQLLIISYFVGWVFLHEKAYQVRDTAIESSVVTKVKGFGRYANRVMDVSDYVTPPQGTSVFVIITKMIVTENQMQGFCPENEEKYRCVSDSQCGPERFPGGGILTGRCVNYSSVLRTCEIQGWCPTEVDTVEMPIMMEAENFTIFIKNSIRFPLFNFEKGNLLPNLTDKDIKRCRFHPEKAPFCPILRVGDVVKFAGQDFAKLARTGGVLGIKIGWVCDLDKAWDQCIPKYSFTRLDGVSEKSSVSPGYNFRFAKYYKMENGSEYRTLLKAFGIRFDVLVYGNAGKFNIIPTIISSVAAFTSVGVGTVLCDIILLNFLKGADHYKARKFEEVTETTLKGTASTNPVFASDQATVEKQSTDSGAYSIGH

[4] = Kinetic solubility of the compound in PAMPA buffer at 50 uM by nepheolometry method; format: physicochemical
[5] = molecular target: T3, P2X purinoceptor 7 (Homo sapiens, UniProt Q99572); experiment: Antagonist activity at P2X7 in LPS/IFN gamma differentiated human THP-1 cells assessed as inhibition of BzATP-induced IL-1beta release preincubated for 30 mins followed by BzATP stimulation for 30 mins by ELISA; format: cell-based
T3 sequence (Q99572 whole entry): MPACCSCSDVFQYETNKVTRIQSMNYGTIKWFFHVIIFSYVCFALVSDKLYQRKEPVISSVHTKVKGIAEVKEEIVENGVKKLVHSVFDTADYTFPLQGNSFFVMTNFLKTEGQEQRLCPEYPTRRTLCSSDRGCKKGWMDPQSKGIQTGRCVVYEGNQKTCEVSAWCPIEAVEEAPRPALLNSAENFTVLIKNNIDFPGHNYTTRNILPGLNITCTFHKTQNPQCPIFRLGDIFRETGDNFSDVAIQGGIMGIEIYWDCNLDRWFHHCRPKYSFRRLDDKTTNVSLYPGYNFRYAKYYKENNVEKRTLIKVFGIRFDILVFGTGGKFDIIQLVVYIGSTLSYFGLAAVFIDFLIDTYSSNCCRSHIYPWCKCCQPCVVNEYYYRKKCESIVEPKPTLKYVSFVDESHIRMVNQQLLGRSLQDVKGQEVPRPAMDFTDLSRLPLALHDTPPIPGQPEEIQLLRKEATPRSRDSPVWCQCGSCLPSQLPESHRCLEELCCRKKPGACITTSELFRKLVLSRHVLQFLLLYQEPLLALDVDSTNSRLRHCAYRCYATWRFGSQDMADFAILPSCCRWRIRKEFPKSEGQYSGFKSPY

[6] = Metabolic stability in human liver microsomes assessed as parent compound remaining at 1 uM up to 30 mins in presence of NADPH by LC-MS/MS analysis; format: ADME, microsome; details: read-out: Stability
[7] = Metabolic stability in rat liver microsomes assessed as parent compound remaining at 1 uM up to 30 mins in presence of NADPH by LC-MS/MS analysis; format: ADME, microsome; details: read-out: Stability
[8] = Effective permeability of the compound at 50 uM after 4 hrs by BBB-PAMPA method; format: ADME; details: read-out: Peff
[9] = Metabolic stability in mouse liver microsomes assessed as parent compound remaining at 1 uM up to 30 mins in presence of NADPH by LC-MS/MS analysis; format: ADME, microsome; details: read-out: Stability
[10] = molecular target: T4, P2X purinoceptor 7 (Homo sapiens) (UniProt Q99572); experiment: Antagonist activity at human P2X7 receptor expressed in HEK293 cells assessed as inhibition of BzATP-induced EtBr uptake at 1 uM after 2 hrs by fluorescence assay relative to control; format: cell-based
T4 sequence (whole entry): T3 sequence (Q99572 whole entry)

[11] = molecular target: T4, P2X purinoceptor 7 (Homo sapiens); experiment: Antagonist activity at human P2X7 receptor expressed in HEK293 cells assessed as inhibition of BzATP-induced EtBr uptake at 10 uM after 2 hrs by fluorescence assay relative to control; format: cell-based
[12] = Cytotoxicity against HEK293 cells expressing human P2X7 receptor assessed as cell survival at 10 uM by MTT assay relative to control; format: cell-based; details: read-out: Survival
[13] = Kinetic solubility of the compound in PAMPA buffer at 25 uM by nepheolometry method; format: physicochemical
[14] = species: Homo sapiens; experiment: Antiproliferative activity against human TS15-88 cells at 50 uM after 24 hrs by MTS assay; format: functional, cell-based
[15] = species: Homo sapiens; experiment: Inhibition of neurosphere formation in human TS15-88 cells assessed as decrease in sphere size at 50 uM after 5 days by microscopic analysis relative to control; format: functional
[16] = molecular target: T3, P2X purinoceptor 7; experiment: Antagonist activity at human P2X7 receptor expressed in HEK293 cells assessed as inhibition of BzATP-induced EtBr uptake after 2 hrs by fluorescence assay relative to control; format: cell-based
[17] = Kinetic solubility of the compound in PAMPA buffer at 12.5 uM by nepheolometry method; format: physicochemical

In the case of Nc1c(S(=O)(=O)O)cc(Nc2ccc(S(=O)(=O)O)c(Nc3nc(Cl)nc(Cl)n3)c2)c2c1C(=O)c1ccccc1C2=O, the IC50 [1] is reported as 0.57 µM and the IC50 [2] is reported as 4.7 µM.

Compound O=C(Nc1cc(C(=O)Nc2ccc(S(=O)(=O)O)cc2)cc(C(=O)Nc2ccc(S(=O)(=O)O)cc2)c1)Nc1cc(C(=O)Nc2ccc(S(=O)(=O)O)cc2)cc(C(=O)Nc2ccc(S(=O)(=O)O)cc2)c1 has an IC50 [3] of 0.5 µM.

With O=C(CC12CC3CC(CC(C3)C1)C2)Nc1cccc2nc(-c3ccc(C(=O)O)cc3)ccc12 the Kinetic_solubility [4] was “Soluble”, the IC50 [5] was 0.025 µM and the remaining at 0.5 h, 1 µM [6] was 40.5%. The remaining at 0.5 h, 1 µM [7] was 10.9%, the Papp at 4 h, 50 µM [8] was 84.4 to 84.6 nm/s and the remaining at 0.5 h, 1 µM [9] was 8.1%. For the same compound, the inhibition [10] was 87%, the inhibition [11] was 93% and the viability at 10 µM [12] was 94%. For the same compound, the Kinetic_solubility [13] was “Soluble”, the Activity [14] was “inactive” and the inhibition [15] was “inactive”. The IC50 [16] was 0.008 µM and the Kinetic_solubility [17] was “Soluble”.
